One data set has as its target protein kinase C alpha (Homo sapiens, UniProt P17252). The settings on record: cited from earlier work.
In the next data set the test system is ERK1/2. The settings on record: downstream indicator of Ras activation, cited from earlier work.
In another data set the target is T1, RasGRP3 (Homo sapiens, UniProt Q8IV61).
T1 sequence (Q8IV61 1-690): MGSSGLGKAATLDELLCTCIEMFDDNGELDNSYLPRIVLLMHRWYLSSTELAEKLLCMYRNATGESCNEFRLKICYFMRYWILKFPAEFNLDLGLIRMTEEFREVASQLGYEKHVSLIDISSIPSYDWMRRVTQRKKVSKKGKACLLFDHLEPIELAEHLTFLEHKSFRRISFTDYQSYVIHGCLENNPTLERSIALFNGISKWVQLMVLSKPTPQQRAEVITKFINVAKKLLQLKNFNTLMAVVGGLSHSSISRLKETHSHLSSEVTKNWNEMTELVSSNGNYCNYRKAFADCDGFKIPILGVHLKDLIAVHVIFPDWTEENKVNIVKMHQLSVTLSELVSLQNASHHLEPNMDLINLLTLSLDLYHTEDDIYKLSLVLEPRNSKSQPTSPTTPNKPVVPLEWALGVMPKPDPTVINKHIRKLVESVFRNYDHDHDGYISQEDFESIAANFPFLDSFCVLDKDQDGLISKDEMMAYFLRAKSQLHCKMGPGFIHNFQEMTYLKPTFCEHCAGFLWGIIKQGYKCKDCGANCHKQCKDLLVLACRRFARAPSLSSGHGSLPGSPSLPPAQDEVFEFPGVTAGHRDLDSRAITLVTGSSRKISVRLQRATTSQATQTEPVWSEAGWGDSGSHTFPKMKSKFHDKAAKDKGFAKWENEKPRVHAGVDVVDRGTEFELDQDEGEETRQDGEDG
The settings on record: cited from earlier work.

The subject of data set [1] is Ras. In words: Western blot analysis of Ras expression in glioma cells. The settings on record: GBM cell lines (A172, U87MG); Iripallidal 20 μM. Type of data set: cell-based, human. As to the method: In another embodiment, protein isolated from glioma cells were treated with Iripallidal and electrophoresed on 6% to 10% polyacrylamide gel, Western blotting was performed and expression of Ras determined as described previously.
(§1) Glioblastoma cell lines U87MG, A172, T98G, and LN229; breast cancer cell line MCF7, cervical cancer cell line HeLa, hepatocellular carcinoma cell line HepG2, acute myeloid leukemia THP1, colon carcinoma cell line HT-29 and acute myeloid leukemic cell line THP1 were obtained from American Type Culture Collection and cultured in DMEM supplemented with 10% fetal bovine serum. On attaining semi-confluence, cells were switched to serum free media and after 12 hours, cells were treated with different concentration of Iripallidal (in DMSO) in serum free media for 24 hours. Following treatment, the cells were processed for Western blot analysis. DMSO treated cells were used as controls.
Protein from whole cell lysates were isolated as described previously. Twenty to fifty μg of protein isolated from cells treated with Iripallidal was electrophoresed on 6% to 10% polyacrylamide gel. Western blotting was performed and Ras expression was determined as described. The blots were stripped and reprobed with anti-β-actin to determine equivalent loading.
A general note: A western blot detects proteins with antibodies after separation by electrophoresis.

In a further data set the test system is normal human monocytes. In words: MTS cell viability assay, normal human monocytes. The class given is cell-based. The settings on record: 24 hours, serum free media. As for the experimental part:
In another embodiment normal human monocytes were treated with different concentration of Iripallidal in serum free media for 24 hours and cell viability was assessed using the MTS assay. Values were expressed as a percentage relative to those obtained in controls.
Whole blood (5 ml) was drawn from normal human volunteers and mononuclear cells were separated by Histopaque density gradient centrifugation. Briefly, blood was diluted twice with phosphate buffered saline (PBS) and layered over Histopaque (Sigma, Mo., USA) and centrifuged at 1500 rpm for 20 mins at room temperature. Peripheral blood mononuclear cells (PBMC) were collected carefully at the interface of Histopaque and plasma, diluted five times with PBS and centrifuged at 1500 rpm for 10 mins. PBMC thus pelleted were washed twice with PBS and seeded onto glass petri dishes and allowed to adhere for 3 hrs. Non adherent cells were removed by gentle washing with PBS twice and the adherent monocytes were used in MTS assay.
Cell viability was assessed using the [3-(4,5-dimethylthiazol-2-yl)-5-(3-carboxymethoxy-phenyl)-2-(4-sulfophenyl)-2H-tetrazolium, inner salt] (MTS) as described earlier. […] After 4 hours of incubation the absorbance reflecting reduction of MTS by viable cells was determined at 490 nm. Values were expressed as a percentage relative to those obtained in controls.
(Tetrazolium assays rely on reduction of a dye to a coloured formazan, in cell work by metabolically active cells.)

The subject of data set [2] is MCF-7, HeLa, HepG2, THP1, HT-29 cells. In words: MTS cell viability assay, breast, cervical, hepatocellular, myeloid leukemia and colon cancer cell lines. The class given is cell-based, human. As to the method: In another embodiment colon cancer cell line HT29, breast cancer line MCF-7, cervical cancer cell line HeLa, hepatocellular carcinoma cell line HepG2 and acute myeloid leukemic cell line THP1 were treated with different concentration of Iripallidal (in Dimethyl sulphoxide, DMSO) in serum free media for 24 hours and cell viability was assessed using the MTS assay. Values were expressed as a percentage relative to those obtained in controls.
Glioblastoma cell lines U87MG, A172, T98G, and LN229; breast cancer cell line MCF7, cervical cancer cell line HeLa, hepatocellular carcinoma cell line HepG2, acute myeloid leukemia THP1, colon carcinoma cell line HT-29 and acute myeloid leukemic cell line THP1 were obtained from American Type Culture Collection and cultured in DMEM supplemented with 10% fetal bovine serum. On attaining semi-confluence, cells were switched to serum free media and after 12 hours, cells were treated with different concentration of Iripallidal (in DMSO) in serum free media for 24 hours. […]
(§2) Cell viability was assessed using the [3-(4,5-dimethylthiazol-2-yl)-5-(3-carboxymethoxy-phenyl)-2-(4-sulfophenyl)-2H-tetrazolium, inner salt] […] After 4 hours of incubation the absorbance reflecting reduction of MTS by viable cells was determined at 490 nm. Values were expressed as a percentage relative to those obtained in controls.

The test system of data set [3] is panel of 60 human cancer cell lines. The settings on record: NCI 60 cell line screen; cited from earlier work.
Data set [4] concerns U87MG, A172, LN229 and T98G cells. In words: MTS cell viability assay, glioma cell lines. The settings on record: 24 hours, serum free media, in vitro. The class given is cell-based, human. As to the method: In another embodiment GBM cell lines U87MG, A172, T98G, and LN229 were treated with different concentration of Iripallidal (in Dimethyl sulphoxide, DMSO) in serum free media for 24 hours and cell viability was assessed using the [3-(4,5-dimethylthiazol-2-yl)-5-(3-carboxymethoxy-phenyl)-2-(4-sulfophenyl)-2H-tetrazolium, inner salt] (MTS) assay. Values were expressed as percent cell viability relative to control.
as §1, with “DMSO treated cells were used as controls.” left out
as §2

For data set [5], the system named is Ras. In words: Ras activity (Ras-GTP pull-down with Raf-1 Ras binding domain) in glioma cells. The class given is cell-based, human. The settings on record: Iripallidal 20 μM, compared to the control. As for the experimental part: In another embodiment the Ras activity was performed using a commercially available kit from Upstate Biotechnology (Temecula, Calif., USA). Briefly, glioma cell lines (2×10^6) treated with Iripallidal were lysed and the cleared lysates were incubated with bead-bound RAS binding domain of Raf-1 protein to precipitate Ras-GTP. The precipitates were subjected to SDS-PAGE and Western blotting.
Effect of Iripallidal on the level of GTP-bound Ras. The level of Ras-GTP in protein extracts of control and Iripallidal treated glioma cells was determined by the ability of Ras-GTP to bind to a specific protein domain of Raf in the form of a GST-fusion protein. […] IR1 denotes Iripallidal.

The source of these data is patent US20110054040A1, “Bicyclic Triterpenoid Iripallidal as a Novel Anti-Glioma and Anti-Neoplastic Therapy” (DEPARTMENT OF BIOTECHNOLOGY, priority 2008, published 2011).

Where two headings read alike, the source gives them in different places.

On to `C=C(/C=C/C=C(/CCC=C(C)C)COC(C)=O)[C@@H]1CC[C@]2([C@H](CCCO)/C(=C(/C)C=O)CC[C@]2(C)O)[C@@H]1O` [NSC 631941, reference compound], for which the “binding to protein kinase C alpha” value at protein kinase C alpha is given as “bound”. In addition, the “phosphorylation of ERK1/2” value in the data set on ERK1/2 was “induced phosphorylation of ERK1/2”. The “binding to RasGRP3” value at RasGRP3 is “bound”.

For `CC1=CC[C@H](C)C(C)(C)C1/C=C/C(C)=C/CC[C@@]1(CO)[C@H](CCCO)/C(=C(/C)C=O)CC[C@]1(C)O` (single isomer, unassigned; (-)) [Iripallidal], in the data set with Ras [1], the Ras levels entry is “elevated both Ras levels”. Also, in the data set on normal human monocytes, the “viability of normal human monocytes” value was “does not effect the viability”. Moreover, at protein kinase C alpha, the “binding to protein kinase C alpha” value is “bound”. Also, the “proliferation of breast, colon, cervical, liver and myeloid cancer cells” value in [2] (24 hours, serum free media) was “inhibited the proliferation”. For the same compound, the “reduction of proliferation of cancer cell lines” value in [2] (cancer cell lines, not specified further) was 50-70%. For the same compound, the anti-proliferative activity entry in data set [3] was “micromolar to nanomolar range”. Also, in [4], the “viability of glioblastoma cell lines” value is “decreased the viability of glioblastoma cell lines significantly”. The “Ras activity (Ras-GTP level)” value with Ras [5] is “An increase Ras activity was observed”. For the same compound, the “phosphorylation of ERK1/2” value with ERK1/2 is reported as “induces phosphorylation of ERK1/2 in a Ras dependent manner”; in the data set on ERK1/2 (listed as NSC 631939) it was “induced phosphorylation of ERK1/2”. Further, the “binding to RasGRP3” value at RasGRP3 is on record as “binds to RasGRP3”; at RasGRP3 (listed as NSC 631939), “bound”.
